From patent publication US20250206708A1, “AN OXAZIRIDINE PLATFORM FOR TARGETING FUNCTIONAL ALLOSTERIC METHIONINE SITES” (Novartis AG, priority 2022, published 2025) come the findings set out here.

The subject of this test is CDK4. Briefly: Western blot of Rb phosphorylation (S780, S807/811) as cellular CDK4 activity. The format is cell-based, human. Particulars: serum-synchronized MCF-7 cells, dose of 500 μM. The protocol:
Cells were synchronized to G1 via serum starvation. Cells were plated at 50% confluency and allowed to adhere overnight in serum-containing media. The next morning, the cells were gently washed twice with HBSS, and serum-free media was added. Cells were allowed to incubate an additional […], […]. Final cell confluency should remain below 75% for optimal results.
Cells were seeded in full media at 8 e5 cells/well in a 6-well plate. They were then serum-synchronized, as outlined in Example 15, and treated with compound as described previously. Cells were monitored by eye for cell death and harvested once high-dose cells were round but not detached. Cells were transferred to ice and washed twice gently with 1 mL ice-cold PBS. 10 mL of lysis buffer was prepared by dissolved a protease-inhibitor table (Pierce; cat no. A32953) and a phosphatase-inhibitor tablet (Roche; cat no. 4906845001) in 10 mL PBS (1% Triton X-100). Cells were scraped to harvest, transferred to 1.5 mL Eppendorf tubes, and incubated at 4° C. for 30 min on a rotator. Samples were spun at 5000×g for 10 min to clarify lysate. Supernatant was transferred to a new tube and protein concentration quantified via BCA assay (Pierce; cat no. 23225). Samples were normalized to the lowest concentration using chilled lysis buffer. […]

For the compound `O=C(N1CC2COCC2C1)N1OC1c1ccccc1` (stereo not shown) [Compound 148], the “signal from pRb antibodies (cellular CDK4 activity)” value is given as “marked decrease in signal”.
